Molecular target: Human LPA1 (Homo sapiens, UniProt Q92633)
Test: Beta-Arrestin based assay for human LPA1R antagonists (PathHunter)
Format: cell-based
Set-up: host or cells: CHO
Settings: CHO cells stably expressing ProLink tagged human LPA1R; agonist LPA 0.5 micromolar
Method: Beta-Arrestin Based Assays for Human LPA1R Antagonists and Agonists
A CHO cell line stably expressing the ProLink™ tagged human LPA1R was obtained from DiscoverX Inc, Fremont, Calif. In this system, β-Arrestin was fused to an N-terminal deletion mutant of β-galactosidase (termed the enzyme acceptor or EA), the human LPA1R was fused to a smaller (42 amino acids) weakly complementing fragment termed ProLink™. […] Cell handling and assays were performed according to protocols specified in the PathHunter® assays kits (DiscoverX, Fremont, Calif.). Assays were performed in quadruplicate in white 384 well plates. End point luminescence data were plotted and fit to a 4 parameter logistic function to obtain IC50 values. For antagonist assays, an […] concentration of agonist (LPA) equal to 0.5 micromolar was used.

Chain of Human LPA1 (Q92633 whole entry): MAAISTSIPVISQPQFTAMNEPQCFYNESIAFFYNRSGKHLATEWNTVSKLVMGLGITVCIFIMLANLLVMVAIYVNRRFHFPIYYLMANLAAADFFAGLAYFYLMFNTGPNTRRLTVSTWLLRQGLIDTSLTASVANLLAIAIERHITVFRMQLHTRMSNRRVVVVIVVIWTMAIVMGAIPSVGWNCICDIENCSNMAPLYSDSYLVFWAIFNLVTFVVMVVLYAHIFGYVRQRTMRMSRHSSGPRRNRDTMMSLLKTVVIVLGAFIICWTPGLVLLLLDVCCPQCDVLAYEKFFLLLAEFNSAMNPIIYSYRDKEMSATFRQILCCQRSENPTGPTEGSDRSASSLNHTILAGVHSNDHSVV

EC50 [nM]	SMILES
< 50	Cc1nsc(-c2ccc(-c3ccc(C4(C(=O)O)CC4)cc3)cc2)c1NC(=O)O[C@H](C)c1cccc(Cl)c1 [Compound 198]
< 50	C[C@@H](OC(=O)Nc1c(-c2cc(F)c(-c3ccc(C4(C(=O)O)CC4)cc3)cc2F)cnn1C)c1ccccc1Cl [Compound 199]
< 50	C[C@@H](OC(=O)Nc1c(-c2cc(Cl)c(-c3ccc(C4(C(=O)O)CC4)cc3)cc2F)cnn1C)c1ccccc1Cl [Compound 202]
< 50	C[C@@H](OC(=O)Nc1c(-c2ccc(-c3ccc(C4(C(=O)O)CC4)cc3)c(F)c2)cnn1C)c1ccccc1 [Compound 203]
< 50	C[C@@H](OC(=O)Nc1c(-c2ccc(-c3ccc(C4(C(=O)O)CC4)cc3)cc2F)cnn1C)c1ccccc1 [Compound 204]
< 50	C[C@@H](OC(=O)Nc1c(-c2c(F)cc(-c3ccc(C4(C(=O)O)CC4)cc3)cc2F)cnn1C)c1ccccc1 [Compound 205]
< 50	C[C@@H](OC(=O)Nc1oncc1-c1ccc(-c2ccc(C3(C(=O)O)CC3)cc2)cc1)c1ccccc1 [Compound 206]
> 500	C[C@@H](OC(=O)Nc1sc2ccccc2c1-c1ccc(-c2ccc(C3(C(=O)O)CC3)cc2)cc1)c1ccccc1 [Compound 207]
> 500	C[C@@H](OC(=O)Nc1oc2ccccc2c1-c1ccc(-c2ccc(C3(C(=O)O)CC3)cc2)cc1)c1ccccc1 [Compound 208]
50 to 500	C[C@@H](OC(=O)Nc1c(-c2ccc(-c3ccc(C4(C(=O)O)CC4)cc3)cc2)sc2ccccc12)c1ccccc1Cl [Compound 209]
50 to 500	C[C@@H](OC(=O)Nc1cnsc1-c1ccc(-c2ccc(C3(C(=O)O)CC3)cc2)cc1)c1ccccc1Cl [Compound 210]
50 to 500	C[C@@H](OC(=O)Nc1nsnc1-c1ccc(-c2ccc(C3(C(=O)O)CC3)cc2)cc1)c1ccccc1 [Compound 211]
> 500	C[C@@H](OC(=O)Nc1c(-c2ccc(-c3ccc(C4(C(=O)O)CC4)cc3)cc2)oc2nc(C(F)(F)F)ccc12)c1ccccc1 [Compound 212]
> 500	Cc1ccc2c(NC(=O)O[C@H](C)c3ccccc3)c(-c3ccc(-c4ccc(C5(C(=O)O)CC5)cc4)cc3)sc2n1 [Compound 214]
> 500	Cc1ccc2c(NC(=O)O[C@H](C)c3ccccc3)c(-c3ccc(-c4ccc(C5(C(=O)O)CC5)cc4)cc3)oc2n1 [Compound 215]
< 50	Cc1nsc(-c2ccc(-c3ccc(C4(C(=O)O)CC4)cc3)cc2)c1NC(=O)O[C@H](C)C1=C(Cl)CCCC1 [Compound 218]
50 to 500	Cc1nsc(-c2ccc(-c3ccc(C4(C(=O)O)CC4)cc3)cc2)c1NC(=O)O[C@@H](C)C1=C(Cl)CCCC1 [Compound 219]
< 50	CC(C)n1ncc(-c2ccc(-c3ccc(C4(C(=O)O)CC4)cc3)cc2)c1NC(=O)O[C@H](C)c1ccccc1 [Compound 220]
< 50	CCn1ncc(-c2ccc(-c3ccc(C4(C(=O)O)CC4)cc3)cc2)c1NC(=O)O[C@H](C)c1ccccc1 [Compound 221]
> 500	CC(OC(=O)Nc1n[nH]nc1-c1ccc(-c2ccc(C3(C(=O)O)CC3)cc2)cc1)c1ccccc1 (centres unmarked) [Compound 223]
> 500	C[C@@H](OC(=O)Nc1nn(C)nc1-c1ccc(-c2ccc(C3(C(=O)O)CC3)cc2)cc1)c1ccccc1 [Compound 225]
> 500	C[C@@H](OC(=O)Nc1nnn(C)c1-c1ccc(-c2ccc(C3(C(=O)O)CC3)cc2)cc1)c1ccccc1 [Compound 226]
> 500	Cc1nsc(-c2ccc(-c3ccc(C4(C(=O)O)CC4)cc3)cc2)c1NC(=O)O[C@@H](C)c1ccccc1 [Compound 236]
> 500	Cc1nsc(-c2ccc(-c3ccc(C4(C(=O)OC5OC(C(=O)O)C(O)C(O)C5O)CC4)cc3)cc2)c1NC(=O)O[C@H](C)c1ccccc1 (some centres unmarked) [Compound 238]
> 500	Cc1nsc(-c2ccc(-c3ccc(C4(C(=O)O)CC4)cc3)c3c2CCC3)c1NC(=O)O[C@H](C)c1ccccc1 [Compound 239]

EC50 [nM]	SMILES
50 to 500	Cc1nsc(-c2ccc(-c3ccc(C4(C(=O)O)CCOCC4)cc3)cc2)c1NC(=O)O[C@H](C)c1ccccc1 [Compound 243]
> 500	Cc1nsc(-c2ccc(-c3ccc(C4(C(=O)O)CC4)cc3)cc2)c1NC(=O)OC1(c2ccccc2)CC1 [Compound 244]
< 50	Cc1nsc(-c2ccc3c(c2)CCc2cc(C4(C(=O)O)CC4)ccc2-3)c1NC(=O)O[C@H](C)c1ccccc1 [Compound 245]
50 to 500	Cc1nsc(-c2ccc3c(c2)CCc2cc(C4(C(=O)O)CC4)ccc2-3)c1NC(=O)OCc1ccccc1 [Compound 246]
< 50	Cc1noc(-c2ccc3c(c2)CCc2cc(C4(C(=O)O)CC4)ccc2-3)c1NC(=O)O[C@H](C)c1ccccc1 [Compound 247]
< 50	Cc1noc(-c2ccc3c(c2)CCc2cc(C4(C(=O)O)CC4)ccc2-3)c1NC(=O)O[C@H](C)c1ccccc1Cl [Compound 248]
< 50	Cc1nsc(-c2ccc3c(c2)CCc2cc(C4(C(=O)O)CC4)ccc2-3)c1NC(=O)O[C@H](C)c1ccccc1Cl [Compound 249]
50 to 500	Cc1noc(C#Cc2ccc(C3(C(=O)O)CC3)cc2)c1NC(=O)O[C@H](C)c1ccccc1 [Compound 250]
50 to 500	Cc1nsc(-c2ccc(-c3ccc(C4(C(=O)O)CC4)cc3)nc2)c1NC(=O)O[C@H](C)c1ccccc1Cl [Compound 251]
50 to 500	Cc1nsc(-c2ccc(-c3ccc(C4(C(=O)O)CC4)cn3)cc2)c1NC(=O)O[C@H](C)c1ccccc1Cl [Compound 252]
< 50	Cc1nsc(-c2ccc(-c3ccc(C4(C(=O)O)CC4)cc3)cc2)c1NC(=O)OC(C)c1ccccc1 (centres unmarked) [Compound 253]
50 to 500	Cc1noc(C#Cc2cc3sc(C(=O)O)cc3s2)c1NC(=O)O[C@H](C)c1ccccc1 [Compound 254]
< 50	Cc1noc(C#Cc2cc3sc(C4(C(=O)O)CC4)cc3s2)c1NC(=O)O[C@H](C)c1ccccc1 [Compound 255]
> 500	O=C(O)Cc1ccc(C2CCN(C(=O)CCNC(=O)OCc3ccccc3)CC2)cc1 [Compound 256]
> 500	O=C(O)Cc1ccc(C2CCN(C(=O)[C@@H](Cc3ccccc3)NC(=O)OCc3ccccc3)CC2)cc1 [Compound 257]
> 500	CN(CC(=O)N1CCC(c2ccc(CC(=O)O)cc2)CC1)C(=O)OCc1ccccc1 [Compound 258]
> 500	O=C(O)Cc1ccc(N2CCN(C(=O)CCNC(=O)COc3ccccc3)CC2)cc1 [Compound 265]
> 500	O=C(O)Cc1ccc(N2CCN(C(=O)[C@@H](Cc3ccccc3)NC(=O)OCc3ccccc3)CC2)cc1 [Compound 266]
> 500	C[C@H](NC(=O)OCc1ccccc1)C(=O)N1CCN(c2ccc(CC(=O)O)cc2)CC1 [Compound 267]
> 500	O=C(O)Cc1ccc(N2CCN(C(=O)[C@@H](NC(=O)OCc3ccccc3)c3ccccc3)CC2)cc1 [Compound 268]
> 500	O=C(O)Cc1ccc(N2CCN(C(=O)CNC(=O)OCc3ccccc3)CC2)cc1 [Compound 269]
> 500	O=C(O)Cc1ccc(N2CCN(C(=O)CCCNC(=O)OCc3ccccc3)CC2)cc1 [Compound 270]
> 500	CN(CC(=O)N1CCN(c2ccc(CC(=O)O)cc2)CC1)C(=O)OCc1ccccc1 [Compound 271]
> 500	O=C(O)Cc1ccc(N2CCN(C(=O)[C@H](NC(=O)OCc3ccccc3)c3ccccc3)CC2)cc1 [Compound 272]
> 500	C[C@@H](NC(=O)OCc1ccccc1)C(=O)N1CCN(c2ccc(CC(=O)O)cc2)CC1 [Compound 273]
